Data reported in paper PMC11992225, “Antibacterial compounds against non-growing and intracellular bacteria” (npj Antimicrobials and Resistance, 2025).
Converted amounts (≈) assume the structure as drawn. “And” between values parts separate entries of the source, which are not always exact repeats. Equal entries are not always repeated. Where two headings read alike, the source gives them in different places.

Columns and labels:
E. coli CFT073 (UPEC) = experiment: MIC, standard microdilution assay, growing UPEC; assay type: cell-based, Escherichia coli; settings: E. coli
How it was run: (§1)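 Standard microdilution protocol, triplicate wells. For S. flexneri the growth medium is TSB. The other three strains are grown in HEPES-buffered (40 mM, pH 7.4) CA-MHB, and UPEC is also run at pH 5.5 in LPM containing 30 mM MES.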

S. aureus DSM2569 = experiment: MIC, standard microdilution assay, growing S. aureus; assay type: cell-based, Staphylococcus aureus; settings: S. aureus, CA-MHB pH 7.4, read-out: MIC (μM) CA-MHB
How it was run: as §1

non-growing UPEC CFT073 = experiment: Dose-dependent killing analysis (CFU spot-plating) of stationary-phase UPEC; assay type: cell-based, Escherichia coli; settings: individual replicates
Procedure: To differentiate between these scenarios, we used CFU counting by agar plating to assess the bactericidal effect on non-growing bacteria. […] Conversely, if no significant reduction in CFU is observed, the regrowth delay is due to PAE without killing. […] Fluoroquinolones are known to cause PAE after treatment of growing bacterial cultures.
For survival analysis, bacteria were cultivated as described for the dose–response dilution-regrowth assay. Assays with UPEC were conducted at the CBCS screening facility using 96-well plates with a 200 μl sample volume, and compounds were dispensed using the Echo® (Labcyte) system. P. aeruginosa and S. aureus samples were treated according to the protocol used for the dilution-regrowth experiments. Treated samples were serially diluted 10-fold in PBS, and 10 μl drops were spot-plated onto rectangular LB agar plates using either a Beckman NXP robot (for UPEC) or an Integra VIAFLO96 electronic pipette (for P. aeruginosa and S. aureus). The LB agar plates were incubated overnight at 37 °C and scanned. Colonies were counted at the spots of the lowest dilution where individual colonies could be accurately distinguished. Each colony was manually marked on a separate image layer using the GNU Image Manipulation Program, and counted using NIST’s Integrated Colony Enumerator (NICE 1.4) software. The experiments were performed in three biological replicates.

Compound | MIC (E. coli CFT073 (UPEC); Escherichia coli, LPM pH 5.5, read-out: MIC) [µM] | MIC (E. coli CFT073 (UPEC); Escherichia coli, pH 7.4, CA-MHB, read-out: MIC (μM) CA-MHB) [µM] | MIC (S. aureus DSM2569; Staphylococcus aureus, DSM2569) [µM] | log10(CFU/ml) after treatment (non-growing UPEC CFT073; E. coli in 1:4 CA-MHB (pH 7.4), concentration 0.25) | log10(CFU/ml) after treatment (non-growing UPEC CFT073; E. coli in 1:4 CA-MHB (pH 7.4), concentration 0.5) | log10(CFU/ml) after treatment (non-growing UPEC CFT073; E. coli in 1:4 CA-MHB (pH 7.4), concentration 1) | log10(CFU/ml) after treatment (non-growing UPEC CFT073; E. coli in 1:4 CA-MHB (pH 7.4), concentration 2.5) | log10(CFU/ml) after treatment (non-growing UPEC CFT073; E. coli in 1:4 CA-MHB (pH 7.4), concentration 5) | log10(CFU/ml) after treatment (non-growing UPEC CFT073; E. coli in LPM (pH 5.5), concentration 0.25) | log10(CFU/ml) after treatment (non-growing UPEC CFT073; E. coli in LPM (pH 5.5), concentration 0.5) | log10(CFU/ml) after treatment (non-growing UPEC CFT073; E. coli in LPM (pH 5.5), concentration 1) | log10(CFU/ml) after treatment (non-growing UPEC CFT073; E. coli in LPM (pH 5.5), concentration 2.5) | log10(CFU/ml) after treatment (non-growing UPEC CFT073; E. coli in LPM (pH 5.5), concentration 5) | MIC (E. coli CFT073 (UPEC); LPM pH 5.5, read-out: MIC) [µM] | MIC (E. coli CFT073 (UPEC); pH 7.4, CA-MHB, read-out: MIC (μM) CA-MHB) [µM] | MIC (S. aureus DSM2569) [µM]
CCCCCCCCN=c1ccn(CCCCCCCCCCn2ccc(=NCCCCCCCC)cc2)cc1 [Octenidine] | 0.5 (≈ 0.275 µg/mL) | 1 (≈ 0.551 µg/mL) | 1 (≈ 0.551 µg/mL) | 9.255 log10(CFU/ml) and 9.041 log10(CFU/ml) and 8.954 log10(CFU/ml) | 9.041 log10(CFU/ml) and 9.176 log10(CFU/ml) and 9.301 log10(CFU/ml) | 9.146 log10(CFU/ml) and 9.204 log10(CFU/ml) and 9.041 log10(CFU/ml) | 9.000 log10(CFU/ml) and 8.903 log10(CFU/ml) and 8.778 log10(CFU/ml) | 8.000 log10(CFU/ml) (2×) and 8.146 log10(CFU/ml) | 7.301 log10(CFU/ml) and 7.568 log10(CFU/ml) and 7.886 log10(CFU/ml) | 7.580 log10(CFU/ml) and 7.447 log10(CFU/ml) and 7.881 log10(CFU/ml) | 7.447 log10(CFU/ml) and 7.663 log10(CFU/ml) and 7.778 log10(CFU/ml) | 7.491 log10(CFU/ml) and 7.633 log10(CFU/ml) and 7.875 log10(CFU/ml) | 7.380 log10(CFU/ml) and 7.663 log10(CFU/ml) and 7.863 log10(CFU/ml) |  |  | 
Plicamycin |  |  |  |  |  |  |  |  |  |  |  |  |  | 32 | 160 | 0.25
